The source of these data is ChEMBL document CHEMBL1158657, “Improved antitumor activity by modification of nogalamycin” (1979).

Assay type in all cases: functional
Assay [1] deals with B16. The experiment in a line: Antitumor activity against mouse B16 cells xenografted in mouse assessed as increase in life span at 16 mg/kg/day, ip after 9 days. As to conditions: route intraperitoneal.
In assay [2] the test system is L1210. The experiment in a line: Cytotoxicity against mouse L1210 cells. Conditions: Mus musculus, L1210, read-out: ID50.
In assay [3] the test system is P388. Description: Antitumor activity against mouse P388 cells xenografted in mouse assessed as increase in life span at 12.5 mg/kg/day, ip after 9 days. As to conditions: route intraperitoneal.
Assay [4] concerns L1210. The experiment in a line: Inhibition of DNA synthesis in mouse L1210 cells. As to conditions: read-out: ID50 (the source's name).
The test system of assay [5] is L1210. The experiment in a line: Inhibition of RNA synthesis in mouse L1210 cells. As to conditions: read-out: ID50 (the source's name).
The test system of assay [6] is L1210. Description: Inhibition of RNA synthesis in mouse L1210 cells at 10 nmole/ml.
Assay [7] relates to B16. Description: Antitumor activity against mouse B16 cells xenografted in mouse assessed as increase in life span at 2.5 mg/kg/day, ip after 9 days. Conditions: route intraperitoneal.
Assay [8] concerns B16. The experiment in a line: Antitumor activity against mouse B16 cells xenografted in mouse assessed as increase in life span at 6 to 12 mg/kg/day, ip after 9 days. As to conditions: route intraperitoneal.
Assay [9] has as its system B16. The experiment in a line: Antitumor activity against mouse B16 cells xenografted in mouse assessed as increase in life span at 10 mg/kg/day, ip after 9 days. As to conditions: route intraperitoneal.
Assay [10] deals with L1210. Description: Antitumor activity against mouse L1210 cells xenografted in mouse assessed as increase in life span at 12.5 mg/kg/day, ip after 9 days. As to conditions: route intraperitoneal.
Assay [11] concerns P388. The experiment in a line: Antitumor activity against mouse P388 cells xenografted in mouse assessed as increase in life span at 3.13 mg/kg/day, ip after 9 days. Conditions: route intraperitoneal.
Assay [12] concerns P388. The experiment in a line: Antitumor activity against mouse P388 cells xenografted in mouse assessed as increase in life span at 12.5 mg/kg/day, iv after 9 days.
For assay [13], the system named is P388. The experiment in a line: Antitumor activity against mouse P388 cells xenografted in mouse assessed as increase in life span at 6.25 mg/kg/day, iv after 9 days.
For assay [14], the system named is P388. Description: Antitumor activity against mouse P388 cells xenografted in mouse assessed as increase in life span at 3.13 mg/kg/day, iv after 9 days.
Assay [15] has as its system L1210. The experiment in a line: Antitumor activity against mouse L1210 cells xenografted in mouse assessed as increase in life span at 6.25 mg/kg/day, ip after 9 days. As to conditions: route intraperitoneal.
The test system of assay [16] is L1210. The experiment in a line: Antitumor activity against mouse L1210 cells xenografted in mouse assessed as increase in life span at 3.13 mg/kg/day, ip after 9 days. As to conditions: route intraperitoneal.
The subject of assay [17] is B16. Description: Antitumor activity against mouse B16 cells xenografted in mouse assessed as increase in life span at 20 mg/kg/day, ip after 9 days. Conditions: route intraperitoneal.
The subject of assay [18] is B16. The experiment in a line: Antitumor activity against mouse B16 cells xenografted in mouse assessed as increase in life span at 5 mg/kg/day, ip after 9 days. As to conditions: route intraperitoneal.
Assay [19] deals with P388. The experiment in a line: Antitumor activity against mouse P388 cells xenografted in mouse assessed as increase in life span at 6.25 mg/kg/day, ip after 9 days. As to conditions: route intraperitoneal.
For assay [20], the system named is P388. The experiment in a line: Antitumor activity against mouse P388 cells xenografted in mouse assessed as increase in life span at 12.5 mg/kg/day, po after 9 days.
In assay [21] the test system is Colon 26. Description: Antitumor activity against mouse Colon 26 cells xenografted in mouse assessed as increase in life span at 25 mg/kg, ip Q4D after 2 days. As to conditions: route intraperitoneal.
Assay [22] relates to Lewis lung carcinoma cell line. The experiment in a line: Antitumor activity against mouse LLC cells xenografted in mouse assessed as increase in life span at 12.5 mg/kg/day, ip after 9 days. As to conditions: route intraperitoneal.
Assay [23] concerns MC-38. Description: Antitumor activity against mouse Colon 38 cells xenografted in mouse assessed as increase in life span at 25 mg/kg, sc Q7D after 2 days. Conditions: route subcutaneous.
A short description of assay [24]: Antitumor activity against mouse CD8F1 cells xenografted in mouse assessed as increase in life span at 25 mg/kg, sc Q7D after 5 days. As to conditions: route subcutaneous.
In assay [25] the test system is B16. The experiment in a line: Antitumor activity against mouse B16 cells xenografted in mouse assessed as increase in life span at 12.5 mg/kg/day, ip after 9 days. As to conditions: route intraperitoneal.
For assay [26], the system named is P388. Description: Antitumor activity against mouse P388 cells xenografted in mouse assessed as increase in life span at 2 mg/kg/day, ip after 9 days. As to conditions: route intraperitoneal.
Assay [27] concerns P388. Description: Antitumor activity against mouse P388 cells xenografted in mouse assessed as increase in life span at 0.5 mg/kg/day, ip after 9 days. Conditions: route intraperitoneal.
Assay [28] relates to P388. The experiment in a line: Antitumor activity against mouse P388 cells xenografted in mouse assessed as increase in life span at 0.25 mg/kg/day, ip after 9 days. As to conditions: route intraperitoneal.
Assay [29] deals with P388. The experiment in a line: Antitumor activity against mouse P388 cells xenografted in mouse assessed as increase in life span at 2 mg/kg/day, iv after 9 days.
Assay [30] relates to P388. The experiment in a line: Antitumor activity against mouse P388 cells xenografted in mouse assessed as increase in life span at 1 mg/kg/day, ip after 9 days. Conditions: route intraperitoneal.
Assay [31] has as its system L1210. The experiment in a line: Antitumor activity against mouse L1210 cells xenografted in mouse assessed as increase in life span at 1 mg/kg/day, ip after 9 days. As to conditions: route intraperitoneal.
Assay [32] concerns P388. Description: Antitumor activity against mouse P388 cells xenografted in mouse assessed as increase in life span at 0.5 mg/kg/day, iv after 9 days.
For assay [33], the system named is P388. The experiment in a line: Antitumor activity against mouse P388 cells xenografted in mouse assessed as increase in life span at 0.25 mg/kg/day, iv after 9 days.
The test system of assay [34] is L1210. Description: Antitumor activity against mouse L1210 cells xenografted in mouse assessed as increase in life span at 2 mg/kg/day, ip after 9 days. Conditions: route intraperitoneal.
For assay [35], the system named is L1210. The experiment in a line: Antitumor activity against mouse L1210 cells xenografted in mouse assessed as increase in life span at 0.5 mg/kg/day, ip after 9 days. As to conditions: route intraperitoneal.
Assay [36] deals with L1210. Description: Antitumor activity against mouse L1210 cells xenografted in mouse assessed as increase in life span at 0.25 mg/kg/day, ip after 9 days. Conditions: route intraperitoneal.
Assay [37] has as its system B16. Description: Antitumor activity against mouse B16 cells xenografted in mouse assessed as increase in life span at 2 mg/kg/day, ip after 9 days. As to conditions: route intraperitoneal.
Assay [38] concerns B16. The experiment in a line: Antitumor activity against mouse B16 cells xenografted in mouse assessed as increase in life span at 1 mg/kg/day, ip after 9 days. Conditions: route intraperitoneal.
In assay [39] the test system is B16. The experiment in a line: Antitumor activity against mouse B16 cells xenografted in mouse assessed as increase in life span at 0.5 mg/kg/day, ip after 9 days. As to conditions: route intraperitoneal.
Assay [40] concerns B16. Description: Antitumor activity against mouse B16 cells xenografted in mouse assessed as increase in life span at 0.25 mg/kg/day, ip after 9 days. Conditions: route intraperitoneal.
The subject of assay [41] is P388. The experiment in a line: Antitumor activity against mouse P388 cells xenografted in mouse assessed as increase in life span at 1 mg/kg/day, iv after 9 days.
Assay [42] concerns B16. The experiment in a line: Antitumor activity against mouse B16 cells xenografted in mouse assessed as increase in life span at 50 mg/kg/day, ip after 9 days. Conditions: route intraperitoneal.
Assay [43] has as its system P388. The experiment in a line: Antitumor activity against mouse P388 cells xenografted in mouse assessed as increase in life span at 25 mg/kg/day, ip after 9 days. As to conditions: route intraperitoneal.
The test system of assay [44] is L1210. Description: Antitumor activity against mouse L1210 cells xenografted in mouse assessed as increase in life span at 50 mg/kg/day, ip after 9 days. Conditions: route intraperitoneal.

Values after ≈ are worked out from the molar mass of the structure shown. Active and inactive are the calls of the source. The calls are words filed in the database; no cut-off is given here.

On to `CO[C@H]1C[C@](C)(O)Cc2cc3c(c(O)c21)C(=O)c1c(O)cc2c(c1C3=O)O[C@@H]1O[C@@]2(C)[C@H](O)[C@@H](N(C)C)[C@@H]1O`, for which the Activity in [1] was found to be 105%; in assay [3], 76%. Further, the IC50 was 0.41 µg/mL (≈ 0.757 µM) in assay [2], 11.6 µM in [4] and 8.3 µM in [5]. Besides, the “inhibition (INH)” value in assay [6] is 91.2%.

In the case of `CO[C@H]1C[C@@](C)(O)Cc2cc3c(c(O)c21)C(=O)c1c(O)cc2c(c1C3=O)O[C@@H]1O[C@@]2(C)[C@H](O)[C@@H](N(C)C)[C@@H]1O`, the Activity in [7] was 64%; in assay [8] it was 77%; in [9] it was 114%; in assay [10] it was 140%; in [3], 197%; in [11], 61%. Further, the Activity in [12] is on record as 187%; in assay [13] it was 53%; in assay [14], 25%; in [15], 55%; in assay [16] it was 42%; in [17], -9%. Further, the Activity in [18] is 88%; in assay [19], 111%; in assay [20], 48%; in assay [21], 106%; in [22], 38%; in assay [23], 21%. In addition, the Activity in assay [24] amounted to 1%; in assay [25], 109%. For the same molecule, the figures for the IC50 in [2], in assay [4] and in assay [5] were 0.061 µg/mL (≈ 0.113 µM), over 46 µM and over 46 µM, respectively. Besides, the “inhibition (INH)” value in assay [6] was 0%.

Consider `COc1cccc2c1C(=O)c1c(O)c3c(c(O)c1C2=O)C[C@@](O)(C(=O)CO)C[C@@H]3O[C@H]1C[C@H](N)[C@H](O)[C@H](C)O1` [DOXORUBICIN], for which the Activity in [26] was 7%; in assay [27], 137%; in assay [28] it was 61%; in [29], 29%; in assay [30], 158%; in assay [31], 38%. Further, the Activity in assay [32] stood at 3%; in assay [33], 8%; in assay [34], 40%; in assay [35], 29%; in assay [36], 20%; in [37], 158%. Also, the Activity is 166% in [38], 160% in assay [39], 127% in assay [40] and 10% in assay [41]. Also, in [20], the result was inactive.

As to `COC(=O)[C@@H]1c2cc3c(c(O)c2[C@@H](OC)C[C@]1(C)O)C(=O)c1c(O)cc2c(c1C3=O)O[C@@H]1O[C@@]2(C)[C@H](O)[C@@H](N(C)C)[C@@H]1O`, the figures for the Activity in assay [42], in assay [43] and in [44] were 84%, 60% and 12%, respectively. For the same molecule, the IC50 in assay [2] is 0.27 µg/mL (≈ 0.45 µM); in [4] it was 3.8 µM; in [5] it was 0.5 µM.
